Data from PubChem BioAssay AID2060626 (Molecular Pharmacology Branch, DTP, NCI, 2025).

System: 168753-222-R-J1-PDC complex spheroid viability
Assay: Anticancer human tumor 168753-222-R-J1-PDC patient-derived bladder carcinoma cell line growth inhibition [CLK]
Details: for IC50: curve of first compound; for viability, T/C: stronger effect = lower value; active = viability on the fitted dose curve at most 10% of control; inactive = the rest
In short: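 Multi-cell-type spheroids combined patient-derived tumor cells with HUVEC endothelial cells and human mesenchymal stem cells. Paired agents were dosed in half-log steps down from about clinical Cmax, or from 10 microM where Cmax was unknown.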

[1] = second compound 0.0316 µM, first compound 0.0316 µM
[2] = second compound 0.0316 µM, first compound 0.1 µM
[3] = second compound 0.0316 µM, first compound 0.316 µM
[4] = second compound 0.0316 µM, first compound 1 µM
[5] = second compound 0.0316 µM, first compound 3.16 µM
[6] = second compound 0.0316 µM, first compound 10 µM
[7] = second compound 0.1 µM, first compound 0.0316 µM
[8] = second compound 0.1 µM, first compound 0.1 µM
[9] = second compound 0.1 µM, first compound 0.316 µM
[10] = second compound 0.1 µM, first compound 1 µM
[11] = second compound 0.1 µM, first compound 3.16 µM
[12] = second compound 0.1 µM, first compound 10 µM
[13] = second compound 0.316 µM, first compound 0.0316 µM
[14] = second compound 0.316 µM, first compound 0.1 µM
[15] = second compound 0.316 µM, first compound 0.316 µM
[16] = second compound 0.316 µM, first compound 1 µM
[17] = second compound 0.316 µM, first compound 3.16 µM
[18] = second compound 0.316 µM, first compound 10 µM
[19] = second compound 1 µM, first compound 0.0316 µM
[20] = second compound 1 µM, first compound 0.1 µM
[21] = second compound 1 µM, first compound 0.316 µM
[22] = second compound 1 µM, first compound 1 µM
[23] = second compound 1 µM, first compound 3.16 µM
[24] = second compound 1 µM, first compound 10 µM
[25] = second compound 3.16 µM, first compound 0.0316 µM
[26] = second compound 3.16 µM, first compound 0.1 µM
[27] = second compound 3.16 µM, first compound 0.316 µM
[28] = second compound 3.16 µM, first compound 1 µM
[29] = second compound 3.16 µM, first compound 3.16 µM
[30] = second compound 3.16 µM, first compound 10 µM
[31] = second compound 10 µM, first compound 0.0316 µM
[32] = second compound 10 µM, first compound 0.1 µM
[33] = second compound 10 µM, first compound 0.316 µM
[34] = second compound 10 µM, first compound 1 µM
[35] = second compound 10 µM, first compound 3.16 µM
[36] = second compound 10 µM, first compound 10 µM
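Also: viability measured after seven days of drug exposure.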
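For viability, T/C in this document: luminescence signal used as surrogate for viable cell amount; 100% = DMSO vehicle control wells.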

C=CC(=O)N1CCN(c2nc(=O)n(-c3c(C)ccnc3C(C)C)c3nc(-c4c(O)cccc4F)c(F)cc23)C(C)C1 (stereo unspecified) + CNC(=O)c1ccc(Nc2nc(OC3CCCC3)c3c(-c4ccc5nc(C)oc5c4)c[nH]c3n2)c(OC)c1
inactive: viability, T/C [1] 107% | viability, T/C [2] 96.7% | viability, T/C [3] 111% | viability, T/C [4] 128% | viability, T/C [5] 117% | viability, T/C [6] 113% | viability, T/C [7] 104% | viability, T/C [8] 98.5% | viability, T/C [9] 97.5% | viability, T/C [10] 107% | viability, T/C [11] 102% | viability, T/C [12] 95.2% | viability, T/C [13] 85.7% | viability, T/C [14] 83.5% | viability, T/C [15] 74.8% | viability, T/C [16] 78.3% | viability, T/C [17] 94.1% | viability, T/C [18] 82.2% | viability, T/C [19] 51.7% | viability, T/C [20] 35.4% | viability, T/C [21] 45.4% | viability, T/C [22] 47.8% | viability, T/C [23] 41.4% | viability, T/C [24] 30.9% | viability, T/C [25] 23.3% | viability, T/C [26] 25.6% | viability, T/C [27] 26.6% | viability, T/C [28] 26.3% | viability, T/C [29] 30.4% | viability, T/C [30] 19.4% | viability, T/C [31] 18.8% | viability, T/C [32] 23.5% | viability, T/C [33] 20.9% | viability, T/C [34] 24.5% | viability, T/C [35] 19.4% | viability, T/C [36] 16.4%
< 31.6 nM: IC50 (second compound 1 µM) | IC50 (second compound 3.16 µM) | IC50 (second compound 10 µM)
> 10000 nM: IC50 (second compound 0.0316 µM) | IC50 (second compound 0.1 µM) | IC50 (second compound 0.316 µM)

CCCS(=O)(=O)Nc1ccc(F)c(C(=O)c2c[nH]c3ncc(-c4ccc(Cl)cc4)cc23)c1F + CNC(=O)c1ccc(Nc2nc(OC3CCCC3)c3c(-c4ccc5nc(C)oc5c4)c[nH]c3n2)c(OC)c1
9850 nM: IC50 (second compound 0.316 µM)
inactive: viability, T/C [1] 109% | viability, T/C [2] 105% | viability, T/C [3] 113% | viability, T/C [4] 116% | viability, T/C [5] 105% | viability, T/C [6] 68.1% | viability, T/C [7] 91.6% | viability, T/C [8] 103% | viability, T/C [9] 105% | viability, T/C [10] 106% | viability, T/C [11] 103% | viability, T/C [12] 66.2% | viability, T/C [13] 92.3% | viability, T/C [14] 98.7% | viability, T/C [15] 93.1% | viability, T/C [16] 104% | viability, T/C [17] 101% | viability, T/C [18] 49.3% | viability, T/C [19] 53.7% | viability, T/C [20] 50.7% | viability, T/C [21] 46.9% | viability, T/C [22] 57.2% | viability, T/C [23] 64% | viability, T/C [24] 28.6% | viability, T/C [25] 25.1% | viability, T/C [26] 33.7% | viability, T/C [27] 34.4% | viability, T/C [28] 30.1% | viability, T/C [29] 29.6% | viability, T/C [30] 26.1% | viability, T/C [31] 20% | viability, T/C [32] 31.2% | viability, T/C [33] 29.7% | viability, T/C [34] 20.1% | viability, T/C [35] 27.8% | viability, T/C [36] 24%
3860 nM: IC50 (second compound 1 µM)
< 31.6 nM: IC50 (second compound 3.16 µM) | IC50 (second compound 10 µM)
> 10000 nM: IC50 (second compound 0.0316 µM) | IC50 (second compound 0.1 µM)

COC1C=CCC(C)C(C)S(=O)(=O)NC(=O)c2ccc3c(c2)N(CC2CCC21)CC1(CCCc2cc(Cl)ccc21)CO3 (stereo unspecified) + CNC(=O)c1ccc(Nc2nc(OC3CCCC3)c3c(-c4ccc5nc(C)oc5c4)c[nH]c3n2)c(OC)c1
2160 nM: IC50 (second compound 0.1 µM)
203 nM: IC50 (second compound 0.316 µM)
active: viability, T/C [30] 7.77%
inactive: viability, T/C [1] 105% | viability, T/C [2] 118% | viability, T/C [3] 101% | viability, T/C [4] 87.6% | viability, T/C [5] 34.6% | viability, T/C [6] 13.6% | viability, T/C [7] 102% | viability, T/C [8] 106% | viability, T/C [9] 101% | viability, T/C [10] 78.5% | viability, T/C [11] 35.9% | viability, T/C [12] 18.9% | viability, T/C [13] 75.9% | viability, T/C [14] 74% | viability, T/C [15] 35% | viability, T/C [16] 29.7% | viability, T/C [17] 30% | viability, T/C [18] 11.9% | viability, T/C [19] 33% | viability, T/C [20] 22.6% | viability, T/C [21] 15.8% | viability, T/C [22] 13.6% | viability, T/C [23] 14.9% | viability, T/C [24] 9.33% | viability, T/C [25] 20.9% | viability, T/C [26] 15.9% | viability, T/C [27] 16.9% | viability, T/C [28] 11.5% | viability, T/C [29] 15.3% | viability, T/C [31] 18% | viability, T/C [32] 15.3% | viability, T/C [33] 16.7% | viability, T/C [34] 10.5% | viability, T/C [35] 11.3% | viability, T/C [36] 11.4%
< 31.6 nM: IC50 (second compound 1 µM) | IC50 (second compound 3.16 µM) | IC50 (second compound 10 µM)
2270 nM: IC50 (second compound 0.0316 µM)
